Measured values as given in paper PMC8437966, “Structure and function relationship of OqxB efflux pump from Klebsiella pneumoniae” (Nature Communications, 2021).

Tests used:
Escherichia coli BW25113 = test system: Escherichia coli BW25113
Method: (§1) MIC (Minimum Inhibitory Concentration) was determined according to CLSI guidelines, as discussed elsewhere. Briefly, the strains were streaked on LB-Agar plates with Ampicillin (100 µg/mL) from glycerol stocks maintained at −80 °C and allowed to grow overnight at 37 °C. A single colony of each strain was picked from the fresh plates and grown in MHB No.2 Control Cations Hi-Media (MHB) with Ampicillin (100 µg/mL). Phe-Arg β-Naphthylamide (PAβN; Sigma-Aldrich, Catalog no.# P4157) was used at a final concentration of 20 µg/mL, wherever mentioned. The AcrAB and OqxAB expression are under a […] promoter, and AcrB and OqxB were induced with 100 μM of IPTG (Amresco, Catalog no.# 0487-10 G). Antibiotics and their two-fold dilution series were prepared in DMSO. Three microliters compound from each of the dilutions and 150 μL (3–7 × 10^5 CFU/mL) of bacterial culture were added to a flat bottom 96 well microtiter plates to obtain final antibiotic concentrations ranging from 0.03 µg/mL to 160 µg/mL. The plates were packed in gas permeable polythene bags and incubated at 37 °C for 16–18 h. MIC was determined as the concentration at which no bacterial growth was observed as ascertained by absorbance (A600nm) with a spectrophotometer. In the case of the wild-type strain and clinical isolates, 90% growth inhibition was used for MIC determination. […] All experiments were performed in triplicates and the data reported in this work is representative of the same. OqxB, the RND efflux pump component, is associated with increased resistance in clinical isolates of E. coli and K. pneumoniae. To understand the efflux liability for fluoroquinolones in E. coli in the clinic, 84 recent clinical isolates were evaluated by MIC experiments (at St. John’s Medical Hospital, Bengaluru, India). […] To delineate the cause of the resistance, the Quinolone-resistance determining regions (QRDR) of gyrA and parC were sequenced. […] Therefore, complementation experiments in “sensitive strains” were undertaken to further probe the role of OqxB in efflux towards fluoroquinolone resistance.

Escherichia coli SEC030 [1] = test system: Escherichia coli SEC030
Method: as §1

Escherichia coli SEC037 [2] = test system: Escherichia coli SEC037
Method: as §1

Escherichia coli SEC086 [3] = test system: Escherichia coli SEC086
Method: as §1

Escherichia coli SEC045 [4] = test system: T1, Escherichia coli SEC045; parameters: CLSI broth microdilution MIC, 96-well, absorbance at 600 nm
T1 construct: SEC045
Method: as §1

Escherichia coli SEC052 = test system: T2, Escherichia coli SEC052; parameters: CLSI broth microdilution MIC, 96-well, absorbance at 600 nm
T2 construct: SEC052
Method: as §1

Escherichia coli SEC056 = test system: T3, Escherichia coli SEC056; parameters: CLSI broth microdilution MIC, 96-well, absorbance at 600 nm
T3 construct: SEC056
Method: as §1

Escherichia coli SEC063 = test system: T4, Escherichia coli SEC063; parameters: CLSI broth microdilution MIC, 96-well, absorbance at 600 nm
T4 construct: SEC063
Method: as §1

Escherichia coli SEC032 [5] = test system: T5, Escherichia coli SEC032; parameters: CLSI broth microdilution MIC, 96-well, absorbance at 600 nm
T5 construct: SEC032
Method: as §1

Escherichia coli SEC010 = test system: T6, Escherichia coli SEC010; parameters: CLSI broth microdilution MIC, 96-well, absorbance at 600 nm
T6 construct: SEC010
Method: as §1

Escherichia coli SEC045 [6] = test system: T1, Escherichia coli SEC045; assay: microbe, parasite or virus in culture; parameters: species or system Escherichia coli clinical isolates; CLSI broth microdilution MIC on E. coli clinical isolates, A600 read-out, 90% growth inhibition; details: SEC045, read-out: MIC VALUES / Ampicillin
Method: as §1

Escherichia coli SEC086 [7] = test system: T7, Escherichia coli SEC086; assay: microbe, parasite or virus in culture; parameters: species or system Escherichia coli clinical isolates; CLSI broth microdilution MIC on E. coli clinical isolates, A600 read-out, 90% growth inhibition; details: SEC086, read-out: MIC VALUES / Ampicillin
T7 construct: SEC086
Method: as §1

Escherichia coli SEC046 = test system: T8, Escherichia coli SEC046; assay: microbe, parasite or virus in culture; parameters: species or system Escherichia coli clinical isolates; CLSI broth microdilution MIC on E. coli clinical isolates, A600 read-out, 90% growth inhibition; details: SEC046, read-out: MIC VALUES / Ampicillin
T8 construct: SEC046
Method: as §1

Escherichia coli SEC037 [8] = test system: T9, Escherichia coli SEC037; assay: microbe, parasite or virus in culture; parameters: species or system Escherichia coli clinical isolates; CLSI broth microdilution MIC on E. coli clinical isolates, A600 read-out, 90% growth inhibition; details: SEC037, read-out: MIC VALUES / Ampicillin
T9 construct: SEC037
Method: as §1

Escherichia coli SEC050 = test system: T10, Escherichia coli SEC050; assay: microbe, parasite or virus in culture; parameters: species or system Escherichia coli clinical isolates; CLSI broth microdilution MIC on E. coli clinical isolates, A600 read-out, 90% growth inhibition; details: SEC050, read-out: MIC VALUES / Ampicillin
T10 construct: SEC050
Method: as §1

Escherichia coli SEC030 [9] = test system: T11, Escherichia coli SEC030; assay: microbe, parasite or virus in culture; parameters: species or system Escherichia coli clinical isolates; CLSI broth microdilution MIC on E. coli clinical isolates, A600 read-out, 90% growth inhibition; details: SEC030, read-out: MIC VALUES / Ampicillin
T11 construct: SEC030
Method: as §1

Escherichia coli SEC032 [10] = test system: T5, Escherichia coli SEC032; assay: microbe, parasite or virus in culture; parameters: species or system Escherichia coli clinical isolates; CLSI broth microdilution MIC on E. coli clinical isolates, A600 read-out, 90% growth inhibition; details: SEC032, read-out: MIC VALUES / Ampicillin
Method: as §1

CC(=O)NC[C@H]1CN(c2ccc(N3CCOCC3)c(F)c2)C(=O)O1 [Linezolid]
400 µg/mL: Linezolid MIC without PAβN (Escherichia coli SEC030 [1]) | Linezolid MIC without PAβN (Escherichia coli SEC063) | Linezolid MIC without PAβN (Escherichia coli SEC032 [5]) | Linezolid MIC without PAβN (Escherichia coli SEC010)
200 µg/mL: Linezolid MIC without PAβN (Escherichia coli BW25113) | Linezolid MIC without PAβN (Escherichia coli SEC037 [2]) | Linezolid MIC without PAβN (Escherichia coli SEC086 [3]) | Linezolid MIC without PAβN (Escherichia coli SEC045 [4]) | Linezolid MIC without PAβN (Escherichia coli SEC052) | Linezolid MIC without PAβN (Escherichia coli SEC056)

CC1(C)S[C@@H]2[C@H](NC(=O)[C@H](N)c3ccccc3)C(=O)N2[C@H]1C(=O)O [ampicillin]
4 µg/mL: MIC (Escherichia coli SEC045 [6]) | MIC (Escherichia coli SEC086 [7])
8 µg/mL: MIC (Escherichia coli SEC046) | MIC (Escherichia coli SEC050) | MIC (Escherichia coli SEC032 [10])
2 µg/mL: MIC (Escherichia coli SEC037 [8]) | MIC (Escherichia coli SEC030 [9])
